Test results taken from patent publication US6585961B1, “Antimicrobial compositions” (priority 2001, dated 2003).

Tests used:
[1] = Appearance and particle size of essential oil emulsion with surfactant; type: physicochemical; conditions: Table I; for Appearance: emulsion of essential oils with surfactant; for Estimated Particle Size: micelle of essential oils with surfactant
Text: Since there are literally thousands of surfactants, many of which fulfill these criteria, it would be a very difficult task to examine every one of them on an individual basis. […]

[2] = Hydrophile-lipophile balance (HLB) of surfactant; type: physicochemical; conditions: for HLB: Table I; for HLB Value: surfactants (2 wt. %) found to give the desired results
Text: An old and well-accepted method to determine functionality of surfactants is known as the hydrophile -lipophile balance (HLB). The HLB is an expression of the relative simultaneous attraction of a surfactant for water and for oil. The HLB of a surfactant determines the type of an emulsion that tends to be formed. It is an indicative of the behavior characteristics and not an indication of surfactant efficiency.
When two or more surfactants are to be blended the HLB of the combinations is easily calculated. If x is the proportion of one surfactant having an HLB of A, and the other surfactant has an HLB of B, the HLB of the combination can be expressed for all practical purposes as xA+(1−x)B. This is a straight-line relationship. If the value of this 16 or greater, then most likely the combination will be workable.

| Molecule | Appearance [1] | Estimated Particle Size [1] | HLB [2] | HLB Value [2] |
| --- | --- | --- | --- | --- |
| Glyceryl dilaurate [Glyceryl dilaurate Lexemul GDL] | not dispersible | very large^1 | 2.4 | – |
| DL-2-pyrrolidone-5-carboxylic acid salt of ethyl N-cocoyl-L-arginate | – | – | – | >20 |
| Cocamidopropyl betaine [Tego Betaine ZF] | transparent | ≧0.05u | – | – |
| CCCCCCCCCCCCCCCCCC(=O)OCCO [Glycol stearate LIPO EGDS, Glycol stearate] | 2 phase | very large^1 | 2.0 | – |
| CCCCCCCCCCCCOS(=O)(=O)[O-].[Na+] [Dodecyl sulfate, sodium salt] | – | – | – | ˜40 |
